Test results: patent publication US11160766B2, “Peritoneal therapeutic fluid” (OPTERION Health AG, priority 2015, dated 2021)
Several values for one entry are separate records, joined by “and”; a condition that tells them apart may be missing. Identical values can stand only once.

Legend:
[1] = test system: Human peritoneal mesothelial cells (HPMC); assay: resazurin cell viability assay on HPMC exposed to PD solutions; format: cell-based; details: for type of dialysis solution mainly improved: summary of example 4; for effect on cell viability in control medium: Medium control without cytotoxic stress, until Cmax (500 μM); for effect reducing cyto-toxicity of all three tested peritoneal dialysis solutions: Example 2 conclusion, PD solutions #1 to #3; for improvement of viability of HPMC cells (resazurin to resorufin conversion): Example 3, added 5 minutes in advance, triplicate; for cell viability on Glucose based and on Icodextrin based PD-Solutions: summary of examples 1 to 4
Protocol: (§1) Human peritoneal mesothelial cells (HPMC) were purchased from Zen Bio Inc. and cultured in cell culture flasks using suppliers media. Near confluent HPMC were harvested by trypsinization, seeded into collagen-coated 96-well tissue culture plates (Corning) and allowed to adhere overnight. The medium was changed to twice diluted with dialysis solution for 48 up to 72 hours.
Cell viability was established applying the promega resazurin assay, following the suppliers protocol. Living cells are metabolically active and are able to reduce the non-fluorescent dye resazurin to the strongly-fluorescent dye resorufin. The fluorescence output is proportional to the number of viable cells over a wide concentration range. This also allows the calculation of the proliferation rate for cells capable of consecutive cell division. […] For the dose-response relationship, relative viability was plotted against the test item concentrations.
All assays were conducted in a duplex format using the same cell culture.
Addition of selected BCAs of this invention partially reestablished reszurin to reorufin conversion, which is interpreted as a result of a decreased cytotoxicity, due to the application of the tested BCAs. Compounds were added at 9 dilutions (Cmax=500 μM) together with tested PD solutions or Medium control. Incubation was 48 hours.
Addition of selected BCA resveratrol partially reestablished resazurin to reorufin conversion, in a triplicate assay, which is interpreted as a result of a decreased cytotoxicity, due to the application of the tested BCA. In this series, Resveratrol was added 5 minutes in advance to application of test-solutions, at 9 dilutions (Cmax=500 μM). Incubation was 72 hours.
partially reestablished resazurin to reorufin conversion, or partly re-established intracellular ATP-level, which is interpreted as a result of a decreased cytotoxicity, due to the application of the tested BCA. Test items were tested at 3 replicates per concentration. All assays were conducted in a duplex format using the same cell culture. Incubation was 72 hours.

VEGF = assay: peritoneal tissue VEGF (ELISA) in rats after chronic peritoneal dialysis; format: in vivo, Sprague-Dawley rats; details: for VEGF concentration (pg/mL) in prot. prep., single animals: peritoneal tissue
Protocol: Animal Studies have been carried out as described in Lee et al. 2012: Peritoneal access ports were inserted in male Sprague-Dawley rats. After one week, rats started to received peritoneal treatment: 10 rats receive once daily 20 ml of Sol #4, 10 rats received 20 ml of Sol #4 with addition of selected BCA (resveratrol), during 2 hour infusions. After 2 to 4 weeks, the abdomen was opened, the peritoneum was recovered and submitted to protein extraction. Tissue VEGF concentration was established by ELISA (Abcam Rat VEGF ELISA Kit, ab100787) on obtained protein preparations (pg/ml).

[2] = concentration (solubility) after stirring at room temperature; format: physicochemical
Protocol: Concentrations of BCA in the present invention are preferably measured after 1 hour stirring at room temperature (which is preferably 20-23° C., more preferably 22° C.), particularly if the BCA is a polyphenolic compound, a metabolite of a polyphenolic compound which is obtained by metabolization in the human or animal body, a salt of a polyphenolic compound, a glycoside of a polyphenolic compound, or derivative of these compounds. So, concentrations of said compound correspond to measured solubility after 1 hour stirring at room temperature. Concentration is measured in a PTF of the invention. So, BCA can be dissolved in water. Other ingredients of a PTF, which are mentioned in this description, are preferably present. If not specifically indicated, or if not specifically indicated otherwise, the time of stirring is one hour. In some cases, other stirring times are indicated, such as 12 hours.

[3] = test system: Human peritoneal mesothelial cells (HPMC); assay: CTG assay, intra-cellular ATP level in HPMC exposed to PD solution; format: cell-based; details: Example 4; PD-Solution #4; 72 hours
Protocol: as §1
In the case of Piceid, the intra-cellular ATP level was determined with the CTG assay. For this, media was completely removed from all wells by aspiration, 60 μl of CTG reagent was added to each well, and incubated for 5 min at RT while softly shaking (50 rpm). Using a Victor3 1420 Multilabel Counter, the emitted luminescence produced in the CTG assay was measured. For the dose-response relationship, absolute luminescence (background subtracted) was related to the negative (medium) control and relative viability values were plotted against the test item concentrations. For the dose-response relationship, absolute luminescence (background subtracted) was related to the negative (medium) control and relative viability values in presence of BCA were plotted against the BCA concentrations.
partially reestablished resazurin to reorufin conversion, or partly re-established intracellular ATP-level, which is interpreted as a result of a decreased cytotoxicity, due to the application of the tested BCA. […]

[4] = Example 4, PD-Solution #3, 72 hours, 3 replicates per concentration
[5] = Example 4, PD-Solution #4, 72 hours, 3 replicates per concentration
[6] = Example 2, PD-Solution #1, 48 hours, 9 dilutions, Cmax=500 μM
[7] = Example 2, PD-Solution #2, 48 hours, 9 dilutions, Cmax=500 μM

## Oc1cc(O)c2cc(O)c(-c3cc(O)c(O)c(O)c3)[o+]c2c1 [Delphinidin]
[1]; [4]
  improvement of cell viability of HPMC cells (resazurin to resorufin conversion): up to 57%

## O=C(O)/C=C/c1ccc(O)c(O)c1 [Cafeic Acid, caffeic acid]
[1]; [4]
  improvement of cell viability of HPMC cells (resazurin to resorufin conversion): up to 32%
[1]; [5]
  improvement of cell viability of HPMC cells (resazurin to resorufin conversion): minor
[1]
  type of dialysis solution mainly improved: mainly improved Icodextrin based dialysis solutions

## Oc1ccc(/C=C/c2cc(O)cc(O)c2)cc1 [Resveratrol, trans-3,5,4′-trihydroxystilbene]
[1]; Example 2, 48 hours
  effect on cell viability in control medium: no significant effect
[1]; [6]
  improvement of cell viability of HPMC cells (resazurin to resorufin conversion): up to 20%
[1]; [7]
  improvement of cell viability of HPMC cells (resazurin to resorufin conversion): up to 40%
[1]; Example 2, PD-Solution #3, 48 hours, 9 dilutions, Cmax=500 μM
  improvement of cell viability of HPMC cells (resazurin to resorufin conversion): up to 40%
[1]; 48 hours
  effect reducing cyto-toxicity of all three tested peritoneal dialysis solutions: strong effect
[1]; PD-Solution #1, 72 hours, Cmax=500 μM
  improvement of viability of HPMC cells (resazurin to resorufin conversion): up to 84%
[1]; PD-Solution #2, 72 hours, Cmax=500 μM
  improvement of viability of HPMC cells (resazurin to resorufin conversion): up to 28%
[1]; PD-Solution #3, 72 hours, Cmax=500 μM
  improvement of viability of HPMC cells (resazurin to resorufin conversion): up to 105%
[1]
  cell viability on Glucose based and on Icodextrin based PD-Solutions: increased cell viability
VEGF; Sol #4 + 40 μM Resveratrol, 2 and 4 weeks combined, 10 rats
  VEGF concentration (pg/mL) in prot. prep., Average: 60.94 pg/mL
VEGF; Sol #4 + 40 μM Resveratrol, 2 weeks treatment
  VEGF concentration (pg/mL) in prot. prep., single animals: 50.21 pg/mL and 39.99 pg/mL and 70.88 pg/mL and 77.84 pg/mL and 60.12 pg/mL
VEGF; Sol #4 + 40 μM Resveratrol, 4 weeks treatment
  VEGF concentration (pg/mL) in prot. prep., single animals: 62.02 pg/mL and 63.71 pg/mL and 57.91 pg/mL and 68.45 pg/mL and 58.23 pg/mL
VEGF; addition to Sol #4, 2 to 4 weeks peritoneal dialysis
  expression of VEGF in the peritoneum of standard PDF treated rats: decreases expression of VEGF
[2]
  concentration after 12 hours stirring: above 24 mg/L

## OC[C@H]1O[C@@H](Oc2cc(O)cc(/C=C/c3ccc(O)cc3)c2)[C@H](O)[C@@H](O)[C@@H]1O [Piceid, resveratrol-3-O-β-mono-D-glucoside]
[1]; Example 2, 48 hours
  effect on cell viability in control medium: no significant effect
[1]; [6]
  improvement of cell viability of HPMC cells (resazurin to resorufin conversion): minor improvements
[1]; [7]
  improvement of cell viability of HPMC cells (resazurin to resorufin conversion): minor improvements
[1]; 48 hours
  effect reducing cyto-toxicity of all three tested peritoneal dialysis solutions: minor effect
[1]; [4]
  improvement of cell viability of HPMC cells (resazurin to resorufin conversion): up to 32%
[1]; [5]
  improvement of cell viability of HPMC cells (resazurin to resorufin conversion): up to 17%
[1]
  cell viability on Glucose based and on Icodextrin based PD-Solutions: increased cell viability
[3]
  improvement of viability of HPMC cells measured by ATP-level re-establishment: 51%

## Oc1cc(O)cc(/C=C/c2ccc(O)c(O)c2)c1 [Piceatannol]
[1]; [4]
  improvement of cell viability of HPMC cells (resazurin to resorufin conversion): up to 44%
[1]; [5]
  improvement of cell viability of HPMC cells (resazurin to resorufin conversion): up to 40%

## COc1cc(/C=C/c2ccc(O)cc2)cc(OC)c1 [Pterostilbene]
[1]; [4]
  improvement of cell viability of HPMC cells (resazurin to resorufin conversion): 183%
[1]; [5]
  improvement of cell viability of HPMC cells (resazurin to resorufin conversion): 118%

## O=c1cc(-c2ccc(O)c(O)c2)oc2cc(O)cc(O)c12 [Luteolin]
[1]; [4]
  improvement of cell viability of HPMC cells (resazurin to resorufin conversion): up to 56%
[1]; [5]
  improvement of cell viability of HPMC cells (resazurin to resorufin conversion): up to 21%
[1]
  type of dialysis solution mainly improved: mainly improved Icodextrin based dialysis solutions
